In patent publication US9796711B2, “Substituted pyrazolo[3,4-b]pyridin-6-carboxylic acids and method of use” (AbbVie S.àr.l., priority 2015, dated 2017):
pEC50: −log10 of the molar value.

Biological target: T1, ΔF508-CFTR (Homo sapiens, UniProt P13569, DEL508-508)
T1 construct: host or cells: CFBE41o-, doxycycline-inducible
Assay: CFTR cell surface levels using HRP-tagged ΔF508-CFTR expressing CFBE cells, in the presence of a co-corrector
Format: cell-based
Conditions: HRP-tagged ΔF508-CFTR expressing CFBE cells, in the presence of 3 μM co-corrector; for pEC50: read-out: EC50
Description: Measuring CFTR Cell Surface Levels Using HRP-Tagged AF508-CFTR Expressing CFBE Cells
The HRP-tagged AF508-CFTR cell assay measures the expression of CFTR-ΔF508 at the plasma membrane. CFTR-ΔF508 has a folding defect leading to absence of protein at the plasma membrane. This assay is used to evaluate the capacity of compounds to increase the expression of CFTR-ΔF508 at the plasma membrane. The CFTR-ΔF508 is tagged with HRP (horse radish peroxidase enzyme) within the ECL4 (Extracellular loop 4) of CFTR (Phuan, P.-W. et al. Synergy-based small-molecule screen using a human lung epithelial cell line yields AF508-CFTR correctors that augment VX-809 maximal efficacy. Mol. Pharmacol. 86, 42-51 (2014)). When HRP-tagged AF508-CFTR is present at the plasma membrane, the HRP enzyme activity can be measured. The amount of CFTR-ΔF508 that can be rescued to the plasma membrane is correlated with the amount of functional enzyme that can be measured.
There are several ways to measure the capacity of compounds to rescue CFTR-ΔF508 to the plasma membrane; either compounds are evaluated on their own and the impact on plasma membrane levels is measured or compounds are evaluated in combination with a co-corrector, i.e. a compound that rescues CFTR-ΔF508 to the plasma membrane but rescue can be enhanced by addition of compounds due to a complementary mode of action.
Activity of Compounds in Combination with Co-Corrector:
For this purpose doxycycline-inducible AF508-CFTR-HRP expressing CFBE4lo-cells (obtained from Gergely Lukacs, McGill University) were maintained in MEM (Minimum Essential Medium, Gibco; 31095) supplemented with 10% fetal bovine serum (Hyclone; SV30160.03) under puromycin (3 μg/mL) and G418 selection (0.2 mg/mL). For compound testing, cells were seeded at 4000 cells/well in white 384-well plates (Greiner; 781080) in 50 μL of medium containing 0.5 μg/mL doxycycline and incubated for 68 hours at 37° C., 5% CO2. On day four, 10 μL of test compounds diluted in PBS (phosphate buffered saline) were added to the plates at a final DMSO concentration of 0.1%. In order to measure compound synergy with a co-corrector, 3 μM co-corrector (3-[(2R,4R)-4-({[1-(2,2-difluoro-1,3-benzodioxol-5-yl)cyclopropyl]carbonyl}amino)-7-methoxy-3,4-dihydro-2H-chromen-2-yl]benzoic acid) was added along with test compounds. All compound plates contained negative controls (DMSO) and positive controls (3 μM co-corrector). Cell plates were incubated at 33° C., 5% CO2 for 20 hours. On day five, the cells were washed five times with phosphate-buffered saline, and HRP activity was assayed by the addition of 50 μL/well of HRP substrate (SuperSignal™ West Pico Chemiluminescent Substrate, Thermo Scientific; 34080). After incubation for 15 minutes in the dark, the chemiluminescence was measured using a plate reader (EnVision®, Perkin Elmer). Raw data were normalized to percentage activity values using the equation: 100×(Sample−Negative control)/(Positive control−Negative Control).

T1 sequence (P13569 with tags, fused parts or gaps DEL508-508): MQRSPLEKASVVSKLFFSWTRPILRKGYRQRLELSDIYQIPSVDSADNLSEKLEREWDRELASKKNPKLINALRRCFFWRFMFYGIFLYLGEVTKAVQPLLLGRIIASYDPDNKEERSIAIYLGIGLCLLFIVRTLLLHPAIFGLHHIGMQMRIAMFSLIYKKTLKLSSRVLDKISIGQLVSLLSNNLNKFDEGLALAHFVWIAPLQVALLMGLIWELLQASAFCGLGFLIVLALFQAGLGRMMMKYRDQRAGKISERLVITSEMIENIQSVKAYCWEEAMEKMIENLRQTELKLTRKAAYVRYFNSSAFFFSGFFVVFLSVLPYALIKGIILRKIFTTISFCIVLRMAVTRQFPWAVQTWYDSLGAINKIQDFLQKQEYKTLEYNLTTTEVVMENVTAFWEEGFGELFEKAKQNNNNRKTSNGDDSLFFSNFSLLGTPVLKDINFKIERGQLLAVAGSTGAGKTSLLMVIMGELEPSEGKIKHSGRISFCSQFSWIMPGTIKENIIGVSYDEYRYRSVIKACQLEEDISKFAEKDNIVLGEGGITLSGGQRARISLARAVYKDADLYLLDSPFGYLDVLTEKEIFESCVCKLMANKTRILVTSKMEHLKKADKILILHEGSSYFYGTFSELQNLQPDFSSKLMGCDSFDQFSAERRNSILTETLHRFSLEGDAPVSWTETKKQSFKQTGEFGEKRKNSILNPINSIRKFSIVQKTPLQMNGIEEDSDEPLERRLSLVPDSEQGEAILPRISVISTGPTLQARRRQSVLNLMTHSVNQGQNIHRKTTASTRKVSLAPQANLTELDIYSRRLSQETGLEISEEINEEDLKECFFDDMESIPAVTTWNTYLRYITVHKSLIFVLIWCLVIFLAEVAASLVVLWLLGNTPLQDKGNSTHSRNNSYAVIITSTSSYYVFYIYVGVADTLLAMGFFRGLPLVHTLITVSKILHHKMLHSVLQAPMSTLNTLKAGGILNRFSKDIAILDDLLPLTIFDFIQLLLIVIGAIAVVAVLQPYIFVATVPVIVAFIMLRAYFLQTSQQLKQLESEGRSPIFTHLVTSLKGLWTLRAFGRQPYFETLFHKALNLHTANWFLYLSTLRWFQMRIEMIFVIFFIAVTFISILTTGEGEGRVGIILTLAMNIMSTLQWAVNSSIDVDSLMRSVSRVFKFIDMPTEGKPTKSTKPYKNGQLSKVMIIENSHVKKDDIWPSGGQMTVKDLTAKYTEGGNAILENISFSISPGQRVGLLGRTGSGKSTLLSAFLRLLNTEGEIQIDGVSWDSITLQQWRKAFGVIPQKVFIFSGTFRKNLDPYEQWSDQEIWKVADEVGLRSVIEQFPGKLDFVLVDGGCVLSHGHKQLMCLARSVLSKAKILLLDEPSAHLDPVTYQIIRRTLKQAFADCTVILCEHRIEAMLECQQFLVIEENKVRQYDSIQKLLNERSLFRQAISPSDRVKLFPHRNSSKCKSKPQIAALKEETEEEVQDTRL

| SMILES | % Activation [%] | pEC50 |
| --- | --- | --- |
| O=C(O)c1cc(N2CC[C@@H](N3CCCCC3)C2)c2c(C3CCC3)nn(-c3ccccc3)c2n1 [compound 715, 3-cyclobutyl-1-phenyl-4-[(3R)-3-(piperidin-1-yl)pyrrolidin-1-yl]-1H-pyrazolo[3,4-b]pyridine-6-carboxylic acid] | 261.4 | 5.90 |
| N#CC1COC2(C1)CN(c1cc(C(=O)O)nc3c1c(C1CCC1)nn3-c1ccccc1)C2 (stereo not shown) [compound 716, 4-(7-cyano-5-oxa-2-azaspiro[3.4]octan-2-yl)-3-cyclobutyl-1-phenyl-1H-pyrazolo[3,4-b]pyridine-6-carboxylic acid] | 282.9 | 6.11 |
| CN1CCCN(C(=O)CCN2CCN(c3cc(C(=O)O)nc4c3c(C3CCC3)nn4-c3ccccc3)CC2)CC1 [compound 717, 3-cyclobutyl-4-{4-[3-(4-methyl-1,4-diazepan-1-yl)-3-oxopropyl]piperazin-1-yl}-1-phenyl-1H-pyrazolo[3,4-b]pyridine-6-carboxylic acid] | 124.6 | 5.30 |
| CN(C)C(=O)C1(N2CCCC2=O)CCN(c2cc(C(=O)O)nc3c2c(C2CCC2)nn3-c2ccccc2)CC1 [compound 718, 3-cyclobutyl-4-[4-(dimethylcarbamoyl)-4-(2-oxopyrrolidin-1-yl)piperidin-1-yl]-1-phenyl-1H-pyrazolo[3,4-b]pyridine-6-carboxylic acid] | 209.8 | 5.78 |
| O=C(O)c1cc(N2CC3(CCCOC3)C2)c2c(C3CCC3)nn(-c3ccccc3)c2n1 [compound 720, 3-cyclobutyl-4-(6-oxa-2-azaspiro[3.5]nonan-2-yl)-1-phenyl-1H-pyrazolo[3,4-b]pyridine-6-carboxylic acid] | 263.1 | 6.45 |
| O=C(O)c1cc(N2CCN3CCC[C@@H]3C2)c2c(C3CCC3)nn(-c3ccccc3)c2n1 [compound 721, 3-cyclobutyl-4-[(8aR)-hexahydropyrrolo[1,2-a]pyrazin-2(1H)-yl]-1-phenyl-1H-pyrazolo[3,4-b]pyridine-6-carboxylic acid] | 302.1 | 6.29 |
| O=C(O)c1cc(N2CCN(CCO)CC2)c2c(C3CCC3)nn(-c3ccccc3)c2n1 [compound 722, 3-cyclobutyl-4-[4-(2-hydroxyethyl)piperazin-1-yl]-1-phenyl-1H-pyrazolo[3,4-b]pyridine-6-carboxylic acid] | 247 | 5.78 |
| CN1CCOC(C2CN(c3cc(C(=O)O)nc4c3c(C3CCC3)nn4-c3ccccc3)C2)C1 (stereo not shown) [compound 723, 3-cyclobutyl-4-[3-(4-methylmorpholin-2-yl)azetidin-1-yl]-1-phenyl-1H-pyrazolo[3,4-b]pyridine-6-carboxylic acid] | 344.8 | 5.98 |
| CN(C1CCN(C2CN(c3cc(C(=O)O)nc4c3c(C3CCC3)nn4-c3ccccc3)C2)CC1)C1COC1 [compound 724, 3-cyclobutyl-4-(3-{4-[methyl(oxetan-3-yl)amino]piperidin-1-yl}azetidin-1-yl)-1-phenyl-1H-pyrazolo[3,4-b]pyridine-6-carboxylic acid] | 208.5 | 5.78 |
| O=C(O)c1cc(N2CC(N3CCC(N4CCOCC4)CC3)C2)c2c(C3CCC3)nn(-c3ccccc3)c2n1 [compound 725, 3-cyclobutyl-4-{3-[4-(morpholin-4-yl)piperidin-1-yl]azetidin-1-yl}-1-phenyl-1H-pyrazolo[3,4-b]pyridine-6-carboxylic acid] | 173.2 | 6.06 |
| CCOCCN1CCC(N2CCN(c3cc(C(=O)O)nc4c3c(C3CCC3)nn4-c3ccccc3)CC2)CC1 [compound 726, 3-cyclobutyl-4-{4-[1-(2-ethoxyethyl)piperidin-4-yl]piperazin-1-yl}-1-phenyl-1H-pyrazolo[3,4-b]pyridine-6-carboxylic acid] | 409.6 | 6.51 |
| CC(O)CN1CCC(N2CCN(c3cc(C(=O)O)nc4c3c(C3CCC3)nn4-c3ccccc3)CC2)CC1 (stereo not shown) [compound 727, 3-cyclobutyl-4-{4-[1-(2-hydroxypropyl)piperidin-4-yl]piperazin-1-yl}-1-phenyl-1H-pyrazolo[3,4-b]pyridine-6-carboxylic acid] | 348 | 5.78 |
| CN(C)CCCN1CCN(c2cc(C(=O)O)nc3c2c(C2CCC2)nn3-c2ccccc2)CC1 [compound 728, 3-cyclobutyl-4-{4-[3-(dimethylamino)propyl]piperazin-1-yl}-1-phenyl-1H-pyrazolo[3,4-b]pyridine-6-carboxylic acid] | 221.6 | 5.78 |
| CCOCCN1CCN(C2CCN(c3cc(C(=O)O)nc4c3c(C3CCC3)nn4-c3ccccc3)CC2)CC1 [compound 729, 3-cyclobutyl-4-{4-[4-(2-ethoxyethyl)piperazin-1-yl]piperidin-1-yl}-1-phenyl-1H-pyrazolo[3,4-b]pyridine-6-carboxylic acid] | 530.4 | 5.78 |
| O=C(O)c1cc(N2CCC(OCCN3CCCCC3)CC2)c2c(C3CCC3)nn(-c3ccccc3)c2n1 [compound 730, 3-cyclobutyl-1-phenyl-4-{4-[2-(piperidin-1-yl)ethoxy]piperidin-1-yl}-1H-pyrazolo[3,4-b]pyridine-6-carboxylic acid] | 418.7 | 7.15 |
| CCN(CC)CCCC1CCN(c2cc(C(=O)O)nc3c2c(C2CCC2)nn3-c2ccccc2)CC1 [compound 731, 3-cyclobutyl-4-{4-[3-(diethylamino)propyl]piperidin-1-yl}-1-phenyl-1H-pyrazolo[3,4-b]pyridine-6-carboxylic acid] | 399.5 | 7.02 |
| O=C(O)c1cc(N2CCC(CCCN3CCCCC3)CC2)c2c(C3CCC3)nn(-c3ccccc3)c2n1 [compound 732, 3-cyclobutyl-1-phenyl-4-{4-[3-(piperidin-1-yl)propyl]piperidin-1-yl}-1H-pyrazolo[3,4-b]pyridine-6-carboxylic acid] | 409.6 | 6.92 |
| O=C(O)c1cc(N2CCC(CCCN3CCCC3)CC2)c2c(C3CCC3)nn(-c3ccccc3)c2n1 [compound 733, 3-cyclobutyl-1-phenyl-4-{4-[3-(pyrrolidin-1-yl)propyl]piperidin-1-yl}-1H-pyrazolo[3,4-b]pyridine-6-carboxylic acid] | 396.9 | 7.07 |
| CCN(C1CCN(c2cc(C(=O)O)nc3c2c(C2CCC2)nn3-c2ccccc2)CC1)C1COC1 [compound 734, 3-cyclobutyl-4-{4-[ethyl(oxetan-3-yl)amino]piperidin-1-yl}-1-phenyl-1H-pyrazolo[3,4-b]pyridine-6-carboxylic acid] | 415 | 6.61 |
| CN(C1CCN(c2cc(C(=O)O)nc3c2c(C2CCC2)nn3-c2ccccc2)CC1)C1COC1 [compound 735, 3-cyclobutyl-4-{4-[methyl(oxetan-3-yl)amino]piperidin-1-yl}-1-phenyl-1H-pyrazolo[3,4-b]pyridine-6-carboxylic acid] | 437.7 | 6.65 |
| O=C(O)c1cc(N2CCC(C3CCN(C4COC4)CC3)CC2)c2c(C3CCC3)nn(-c3ccccc3)c2n1 [compound 736, 3-cyclobutyl-4-[1′-(oxetan-3-yl)[4,4′-bipiperidin]-1-yl]-1-phenyl-1H-pyrazolo[3,4-b]pyridine-6-carboxylic acid] | 511.6 | 7.37 |
| CN(C)C1CCN(c2cc(C(=O)O)nc3c2c(C2CCC2)nn3-c2ccccc2)CC1 [compound 737, 3-cyclobutyl-4-[4-(dimethylamino)piperidin-1-yl]-1-phenyl-1H-pyrazolo[3,4-b]pyridine-6-carboxylic acid] | 343.3 | 5.78 |
| CN1CCN(C(=O)C2CCN(c3cc(C(=O)O)nc4c3c(C3CCC3)nn4-c3ccccc3)CC2)CC1 [compound 739, 3-cyclobutyl-4-[4-(4-methylpiperazine-1-carbonyl)piperidin-1-yl]-1-phenyl-1H-pyrazolo[3,4-b]pyridine-6-carboxylic acid] | 327.2 | 5.78 |
